How the values were obtained:
rats [1] = test: body weight and fat content after oral administration; type: in vivo, rat; conditions: for Body Weight (% of Control) / Periepididymal Adipose Tissue Weight / Retroperitoneal Adipose Tissue Weight / Visceral Adipose Tissue Weight: rats
2A neural cells = test: growth of neurites in 2A neural cells; type: cell-based; conditions: FIG. 3D
rats [2] = test: standard swimming test for depression; type: in vivo, rat; conditions: hemopressin 1 mg/Kg, FIG. 5
diet induced obese rats = test: insulin sensitivity in diet induced obese rats; type: in vivo, rat; conditions: 50 micrograms/Kg and 1 mg/Kg hemopressin, FIG. 6
rodents and humans = conditions: literature; cited from earlier work

symptoms of depression in standard swimming test (rats [2])	Compound	fat content (rats [1])	Body Weight (% of Control) (rats [1])	Periepididymal Adipose Tissue Weight (rats [1]) [g]	Retroperitoneal Adipose Tissue Weight (rats [1]) [g]	Visceral Adipose Tissue Weight (rats [1]) [g]	growth of neurites as measured against agonists (2A neural cells)	insulin sensitivity (diet induced obese rats)	weight reduction (rodents and humans)
–	VDPENFRLLGNM (listed as Rattus sp.) [non-cannabinoid peptide, reference compound]	no effect	100.65 ± 8.07 % of Control	9.38 ± 0.95	8.80 ± 1.15	4.81 ± 1.25	–	–	–
caused the expected depression	Cc1c(C(=O)NN2CCCCC2)nn(-c2ccc(Cl)cc2Cl)c1-c1ccc(Cl)cc1 [rimonabant, reference compound]	–	98.92 ± 0.95 % of Control	5.57 ± 1.03	6.89 ± 1.31	3.91 ± 0.78	efficiently blocks the growth of neurites	did not produce similar results	weight-reducing effects over extended periods

Reference: patent US9452196B2, “Pharmaceutical composition for treating medical conditions and a method for treating alimentary disorders and related diseases” (SOCIEDADE BENEFICENTE DE SENHORAS HOSPITAL SIRIO LIBANES, priority 2009, dated 2016)
